# Results taken from article PMC12730667, “A Scorpion Peptide Exerts Selective Anti-Leukemia Effects Through Disrupting Cell Membranes and Triggering Bax/Bcl-2-Related Apoptosis Pathway” (Biomolecules, 2025).
# Where no end group is shown, it is not given here.
# Columns and labels:
# [1] = system: 24 distinct cancer cell lines; format: cell-based; conditions: CCK-8, 5, 10 and 20 μM
# Procedure: (§1) All cell lines, including CT26.WT, LLC, MV-4-11, HCT-116, ID8, Jurkat, L1210, OVCAR-8, YAC-1, MDA-MB-231, MEL, Mia PaCa-2, B16-F10, HepG2, A549 Hela, 4T1, Panco2, K562, RAJI, A375, HL-60, H1975, HaCat, HUVEC, and HDF, were obtained from the National Collection of Authenticated Cell Cultures (Shanghai, China) or saved in the lab and cultured in RPMI-1640 or DMEM or IMEM medium supplemented with 10% (v/v) fetal bovine serum (FBS), 100 units/mL penicillin, 100 µg/mL streptomycin, and 0.05% (v/v) L-glutamine serum in a humidified atmosphere of 5% CO2 at 37 °C.
# (§2) To determine the effects of Lpep3 on cell cytotoxicity, the Cell Counting Kit-8 (CCK8) assay was performed according to the manufacturer’s protocol. Cells were seeded at 8 × 10^3 cells per well and treated with Lpep3 at different concentrations (100, 50, 25, 12.5, 6.25, 3.125, 1.56, 0.78, 0.39 μM) for 24 h. […] The absorbance at 450 nm was measured using a microplate reader (BioTek, Winooski, VT, USA). […] IC50 values were calculated using non-linear regression analysis of the dose–response curves in GraphPad Prism (8.0.2). The percentage of cellular viability was calculated using the following equation: Cell Viability %=ODSample−ODBlank/ODControl−ODBlank×100%
# To comprehensively characterize the anticancer activity of peptides Lpep1–Lpep7, their cytotoxic effects across 24 distinct cancer cell lines were assessed using CCK-8 assays. […]
# 4T1 cells = format: cell-based; conditions: 24 h
# Procedure: as §1
# (§3) To determine the effects of Lpep3 on cell cytotoxicity, the Cell Counting Kit-8 (CCK8) assay was performed according to the manufacturer’s protocol. Cells were seeded at 8 × 10^3 cells per well and treated with Lpep3 at different concentrations (100, 50, 25, 12.5, 6.25, 3.125, 1.56, 0.78, 0.39 μM) for 24 h. Subsequently, 10 μL of CCK8 reagent (Abbkine, Wuhan, China) was added to each well and incubated for 1–4 h at 37 °C. The absorbance at 450 nm was measured using a microplate reader (BioTek, Winooski, VT, USA). The half-maximal inhibitory concentration (IC50) was defined as the peptide concentration required to reduce cell viability by 50% relative to the untreated control. IC50 values were calculated using non-linear regression analysis of the dose–response curves in GraphPad Prism (8.0.2). The percentage of cellular viability was calculated using the following equation: Cell Viability %=ODSample−ODBlank/ODControl−ODBlank×100%
# B16-F10 cells = format: cell-based; conditions: 24 h
# Procedure: as §1, §3
# CT26.WT cells = format: cell-based; conditions: 24 h
# Procedure: as §1, §3
# H1975 cells = format: cell-based; conditions: 24 h
# Procedure: as §1, §3
# HDF cells = format: cell-based; conditions: 24 h
# Procedure: as §1, §3
# HUVEC cells = format: cell-based; conditions: 24 h
# Procedure: as §1, §3
# HaCaT cells = format: cell-based; conditions: 24 h
# Procedure: as §1, §3
# ID8 cells = format: cell-based; conditions: 24 h
# Procedure: as §1, §3
# LLC cells = format: cell-based; conditions: 24 h
# Procedure: as §1, §3
# Panc02 cells = format: cell-based; conditions: 24 h
# Procedure: as §1, §3
# A375 cells = format: cell-based, human; conditions: 24 h
# Procedure: as §1, §3
# A549 cells = format: cell-based, human; conditions: 24 h
# Procedure: as §1, §3
# HCT116 cells = format: cell-based, human; conditions: 24 h
# Procedure: as §1, §3
# HL-60 cells = format: cell-based, human; conditions: 24 h
# Procedure: as §1, §3
# HeLa cells = format: cell-based, human; conditions: 24 h
# Procedure: as §1, §3
# Hep G2 cells = format: cell-based, human; conditions: 24 h
# Procedure: as §1, §3
# Jurkat cells = format: cell-based, human; conditions: 24 h
# Procedure: as §1, §3
# K562 cells = format: cell-based, human
# Procedure: as §1, §3
# MDA-MB-231 cells = format: cell-based, human; conditions: 24 h
# Procedure: as §1, §3
# MV-4-11 cells = format: cell-based, human
# Procedure: as §1, §3
# Mia PaCa-2 cells = format: cell-based, human; conditions: 24 h
# Procedure: as §1, §3
# OVCAR-8 cells = format: cell-based, human; conditions: 24 h
# Procedure: as §1, §3
# L1210 cells = conditions: 24 h
# Procedure: as §1, §3
# MEL cells = conditions: 24 h
# Procedure: as §1, §3
# YAC-1 cells = conditions: 24 h
# Procedure: as §1, §3
# Primary PBMC = format: cell-based; conditions: 24 h
# Procedure: Briefly, fresh anticoagulated whole blood was collected and diluted with 1× PBS buffer at a ratio of 1:1, followed by gentle mixing. Then, an appropriate volume of mononuclear cell separation medium was added to a sterile centrifuge tube, and the diluted blood sample was carefully layered onto the surface of the separation medium (separation medium–diluted whole blood = 1:2) while maintaining a clear interface between the two layers. Then, it was centrifuged at 450× g for 20–30 min at room temperature. After centrifugation, the plasma layer was aspirated and discarded, then the PBMC layer was carefully collected (i.e., the buffy coat) and transferred to a 15 mL centrifuge tube. […] The isolated PBMCs were then ready for subsequent experiments.
# as §2, with “protocol.” for “protocol. Cells were seeded at 8 × 10^3 cells per well and treated with Lpep3 at different concentrations (100, 50, 25, 12.5, 6.25, 3.125, 1.56, 0.78, 0.39 μM) for 24 h.”
# solid tumor cell lines = experiment: CCK-8 IC50, solid cancer cell lines as a group; format: cell-based; conditions: range over hepatocellular, pancreatic, breast, cervical, lung, colorectal, ovarian and melanoma cell lines, CCK-8, 24 h; read-out: IC50 values in solid cancers
# Procedure: as §3
# Based on the above results, subsequent studies will focus on determining the IC50 of Lpep3 to accurately quantify the intensity of its anticancer activity. […] The ovarian cell was the most sensitive in solid tumor cell lines.
# non-cancer cells = format: cell-based; conditions: 24 h
# Procedure: as §3
# The lowest values approached 0.6 μM in MV-4-11. […] Based on this discrepancy, concentrations of 0.5 μM and 1 μM were selected for subsequent experiments.
# red blood cells = experiment: Hemolytic activity assay; format: cell-based; conditions: red blood cells in PBS, 37 °C, 1 h, absorbance 450 nm, 0.1% Triton X-100 as positive control, Figure S2B
# Procedure: A total of 500 μL fresh whole blood was collected and diluted with 5 mL PBS and then centrifuged at 1000 rpm for 5 min to remove the plasma. The pellet was washed again by adding PBS to a final volume of approximately 10 mL, followed by centrifuging at 1000 rpm for 5 min. This washing step was repeated until the supernatant became clear. The resulting red blood cell pellet was then resuspended in 10 mL PBS. For the hemolysis assay, 200 μL suspension was mixed with 200 μL Lpep3 with different concentrations (100, 50, 25, 12.5, 6.25, 3.125, 1.57, 0.78, 0.39 μM). The positive control consisted of 200 μL suspension mixed with 200 μL 0.1% Triton X-100, while the negative control contained 200 μL RBC suspension and 200 μL PBS. All mixtures were incubated at 37 °C for 1 h, followed by centrifugation at 12,000 rpm for 5 min. The supernatant was collected and measured at 450 nm. The hemolysis rate was calculated using the following equation: Hemolysis rate%=ODSample−ODnegative/ODPositive−ODnagative×100%
# [2] = In vivo biosafety in tumor-bearing nude mice (body weight, blood, liver/kidney function, H&E); parameters: species or system mouse; conditions: 10 mg/kg i.p. every other day, 6 injections
# Description: Healthy male BALB/c nu/nu nude mice (aged 4–5 weeks) were purchased from Slac & Jingda Laboratory Animal Co., Ltd. (Changsha, China). All animal experiments were strictly approved by the Institutional Animal Care and Use Committee (IACUC) of Hunan Normal University, and the Guidelines for the Care and Use of Laboratory Animals issued by the National Institutes of Health (NIH, Bethesda, MD, USA) were strictly adhered to throughout the experiment. MV-4-11 cells (5 × 10^6 cells resuspended in a 1:1 mixture of Matrigel and PBS) were subcutaneously (s.c.) injected into the right axillary fossa of each mouse. When the tumor volume reached 100–150 mm^3, all mice were randomly divided into two groups (n = 4). Mice in the experimental group were intraperitoneally injected with 50 μL of Lpep3 (10 mg/kg), while those in the control group received an intraperitoneal injection of an equal volume of sterile PBS. The day of the first injection was defined as Day 0. Injections were administered every other day, with a total of 6 administrations. Additionally, the tumor volume and body weight of mice in each group were monitored at regular intervals. After the experiment, major organs were dissected, fixed in 4% paraformaldehyde (PFA), and subjected to histological examination. Major organs were further stained with hematoxylin and eosin (H&E) for pathological analysis.
# After euthanasia, whole blood was collected and allowed to stand at 4 °C for 1 h and then centrifuged at 3000× g for 10 min to obtain serum. Serum biochemical and liver/kidney function parameters, including RBC, NEU, HGB, ALT, AST, BUN, and creatinine, were analyzed using an automated chemistry analyzer (TBA-40FR, Tochigi, Japan) according to the manufacturer’s instructions.
# Raji cells = format: cell-based, human; conditions: Raji, 5, 10 and 20 μM, CCK-8
# Procedure: as §1
# as §3, with “Cells were seeded at 8 × 10^3 cells per well and treated with Lpep3 at different concentrations (100, 50, 25, 12.5, 6.25, 3.125, 1.56, 0.78, 0.39 μM) for 24 h.” left out
# [3] = Solubility of the synthesized peptide in PBS and DMSO; format: physicochemical; conditions: peptide excluded from experimental verification
# Description: Based on the anticancer prediction model CNBT-ACPred established by our team previously, there are 276 toxic animal polypeptides whose average prediction score is greater than 0.73. Then, based on the top prediction scores and species diversity, seven candidate peptides were chosen for subsequent experimental validation (Table 2).
sequence,measurement,setting,value
FFGSLLSLGSKLLPSVFKLFQRKKE [Lpep3],cytotoxic effects across 24 distinct cancer cell lines,[1],"potent, broad-spectrum cytotoxic peptide"
same,IC50,4T1 cells,3050 nM
same,IC50,B16-F10 cells,11800 nM
same,IC50,CT26.WT cells,2000 nM
same,IC50,H1975 cells,3040 nM
same,IC50,HDF cells,4520 nM
same,IC50,HUVEC cells,6420 nM
same,IC50,HaCaT cells,5800 nM
same,IC50,ID8 cells,1990 nM
same,IC50,LLC cells,2320 nM
same,IC50,Panc02 cells,2870 nM
same,IC50,A375 cells,2230 nM
same,cell viability,A375 cells; 5 μM,~0%
same,IC50,A549 cells,2720 nM
same,IC50,HCT116 cells,3200 nM
same,IC50,HL-60 cells,1490 nM
same,IC50,HeLa cells,2720 nM
same,cell viability,HeLa cells; 5 μM,~0%
same,IC50,Hep G2 cells,6990 nM
same,IC50,Jurkat cells,554 nM
same,cell viability,Jurkat cells; 5 μM,~0%
same,IC50,K562 cells; 24 h,656 nM
same,cell viability,"K562 cells; 24 h, 5 μM",~0%
same,IC50,MDA-MB-231 cells,2320 nM
same,cell viability,MDA-MB-231 cells; 5 μM,~0%
same,IC50,MV-4-11 cells; 24 h,600 nM
same,cell viability,"MV-4-11 cells; 24 h, 5 μM",~0%
same,IC50,Mia PaCa-2 cells,5400 nM
same,IC50,OVCAR-8 cells,1300 nM
same,cell viability,OVCAR-8 cells; 5 μM,~0%
same,IC50,L1210 cells,2050 nM
same,IC50,MEL cells,563 nM
same,IC50,YAC-1 cells,728 nM
same,IC50,Primary PBMC,3810 nM
same,IC50,solid tumor cell lines,1300 to 11000 nM
same,IC50,non-cancer cells,~5000 nM
same,concentration at which a 50% hemolysis rate was observed,red blood cells,12.5 µM
same,"liver and kidney function indices (AST, ALT, UA, CRE)","[2]; n = 4, serum",remained within the normal range
same,"blood routine indices (RBC, HGB, Neu)","[2]; n = 4, vs PBS",no obvious difference
same,body weight,"[2]; n = 4, vs PBS",no obvious difference
same,"H&E staining of liver, spleen and kidney",[2]; vs control group,no obvious damage
"FVQWFSKFLGRIL [Lpep7, 13-residue candidate peptide, species Rana temporaria]",cytotoxic activity,"K562 cells; K562, 5, 10 and 20 μM, CCK-8",moderate activity
same,cytotoxic activity,"MV-4-11 cells; MV-4-11, 5, 10 and 20 μM, CCK-8",moderate activity
same,cytotoxic activity,Raji cells,moderate activity
"GLFDIAKKVIGVIGSL [Lpep4, 16-residue candidate peptide, species Ranoidea raniformis]",solubility in PBS and DMSO,[3],poor solubility
